Test systems include SK-OV-3 ovarian; NCI-H23 lung; RPMI-8226 leukemia; MOLT-4 leukemia; NCI-H460 lung; U251 CNS; HOP-62 NSCLC; RXF 393 renal; SNB-75 CNS; HOP-92 NSCLC.
Assay in all cases: NCI anticancer screen, dose series, 48 h

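Five compound concentrations were applied to cells in 96-well plates for 48 hours; endpoints were derived by simple linear interpolation of the resulting dose-response curve. GI50 is the concentration that inhibits growth by half. Definition used: TGI = concentration required for complete inhibition of growth.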 A value given as a limit tells only on which side of the number the result lay.

`O=[N+]([O-])c1ccc2c(c1)[O][Sn]([I])([I])[O]2`: the GI50 with SK-OV-3 ovarian was above 100 µM; in the experiment with NCI-H23 lung, 60 µM; in the experiment with RPMI-8226 leukemia it was 44.6 µM; in the experiment with MOLT-4 leukemia, 68400 nM; with NCI-H460 lung, above 100 µM; in the experiment on U251 CNS, above 100 µM. The GI50 with HOP-62 NSCLC is above 100 µM; in the experiment on RXF 393 renal, 52.1 µM; with SNB-75 CNS it was above 100000 nM; in the experiment on HOP-92 NSCLC, above 100000 nM. In addition, the TGI with SK-OV-3 ovarian, in the experiment with NCI-H23 lung, with RPMI-8226 leukemia, with MOLT-4 leukemia, in the experiment with NCI-H460 lung and with U251 CNS was above 100 µM in each case. Also, the TGI in the experiment with HOP-62 NSCLC, in the experiment on RXF 393 renal, in the experiment on SNB-75 CNS and in the experiment with HOP-92 NSCLC was above 100 µM each time.

For `Nc1ccc(S(=O)(=O)NCc2nccs2)cc1`, the TGI in the experiment on SK-OV-3 ovarian is above 100 µM; with NCI-H23 lung, 58.9 µM; in the experiment with RPMI-8226 leukemia it was 56.1 µM; with MOLT-4 leukemia, 69 µM; with NCI-H460 lung it was above 100 µM; in the experiment with U251 CNS it was 47.5 µM. Besides, the TGI in the experiment on HOP-62 NSCLC was above 100 µM; in the experiment with RXF 393 renal it was above 100 µM; in the experiment on SNB-75 CNS it was 58.8 µM; with HOP-92 NSCLC it was 41.4 µM.

As to `CCOC(=O)COS(=O)(=O)C(F)(F)F`, the TGI is above 100 µM in the experiment with SK-OV-3 ovarian; above 100 µM with NCI-H23 lung; 50.5 µM in the experiment with RPMI-8226 leukemia; above 100 µM in the experiment on MOLT-4 leukemia; above 100 µM in the experiment with NCI-H460 lung; above 100 µM in the experiment on U251 CNS. Also, the TGI with HOP-62 NSCLC, in the experiment with RXF 393 renal, in the experiment with SNB-75 CNS and in the experiment on HOP-92 NSCLC was above 100 µM each time.

For `COC(=O)C1=C(C(=O)OC)SC(=C(Cl)C(=S)Sc2ccccc2N)S1`, the GI50 with SK-OV-3 ovarian is 41.3 µM; in the experiment with NCI-H23 lung, 10.1 µM; in the experiment with RPMI-8226 leukemia it was 51.8 µM; in the experiment with MOLT-4 leukemia, above 100000 nM; with NCI-H460 lung it was 19.6 µM; in the experiment on U251 CNS, 18.5 µM. Besides, the GI50 is 13.5 µM in the experiment on HOP-62 NSCLC, 18.1 µM with RXF 393 renal, 32800 nM with SNB-75 CNS and 46400 nM in the experiment on HOP-92 NSCLC. The TGI was above 100 µM in the experiment on SK-OV-3 ovarian; 25.9 µM in the experiment on NCI-H23 lung; above 100 µM in the experiment on RPMI-8226 leukemia; above 100 µM with MOLT-4 leukemia; 35.5 µM with NCI-H460 lung; 35.4 µM in the experiment on U251 CNS. The TGI in the experiment on HOP-62 NSCLC was 33.2 µM; in the experiment with RXF 393 renal it was 38 µM; with SNB-75 CNS, above 100 µM; in the experiment on HOP-92 NSCLC, above 100 µM.

Take `CC(C)Oc1cc(O)c2c(c1)OCC=C2CCC(=O)O`: the TGI in the experiment on SK-OV-3 ovarian is above 100 µM; with NCI-H23 lung it was above 100 µM; in the experiment on RPMI-8226 leukemia, 69.3 µM; in the experiment with MOLT-4 leukemia it was 91 µM; with NCI-H460 lung, above 100 µM; with U251 CNS it was above 100 µM. For the same molecule, the TGI in the experiment on HOP-62 NSCLC is above 100 µM; in the experiment with RXF 393 renal it was above 100 µM; with SNB-75 CNS, above 100 µM; with HOP-92 NSCLC it was 76.6 µM.

Regarding `O=C1CCC(O)=C1O`, the TGI in the experiment on SK-OV-3 ovarian, in the experiment with NCI-H23 lung, with RPMI-8226 leukemia, in the experiment with MOLT-4 leukemia, in the experiment with NCI-H460 lung and in the experiment with U251 CNS was above 100 µM in each case. Besides, the TGI with HOP-62 NSCLC, with RXF 393 renal, in the experiment with SNB-75 CNS and in the experiment on HOP-92 NSCLC was above 100 µM each time.

As to `Oc1ccccc1-c1nc2c3ccccc3c3ccccc3c2[nH]1`, the GI50 in the experiment on SK-OV-3 ovarian is 8.68 µM; in the experiment on NCI-H23 lung, 9.84 µM; in the experiment with RPMI-8226 leukemia it was 1.93 µM; in the experiment with MOLT-4 leukemia, 2760 nM; with NCI-H460 lung, 3.39 µM; in the experiment with U251 CNS, 10.5 µM. Also, the GI50 in the experiment on HOP-62 NSCLC was 3.93 µM; with RXF 393 renal, 6.23 µM; in the experiment with SNB-75 CNS, 2530 nM; with HOP-92 NSCLC, 1550 nM. Also, the TGI is 23.7 µM with SK-OV-3 ovarian; 22.3 µM in the experiment on NCI-H23 lung; 14.4 µM with RPMI-8226 leukemia; 10.7 µM with MOLT-4 leukemia; 12.1 µM in the experiment on NCI-H460 lung; 22.2 µM with U251 CNS. Besides, the TGI with HOP-62 NSCLC came to 15 µM; with RXF 393 renal it was 18.8 µM; in the experiment with SNB-75 CNS, 15.2 µM; in the experiment with HOP-92 NSCLC, 6.48 µM.

With `O=Cc1ccc(-c2cccs2)s1`, the TGI was above 100 µM with SK-OV-3 ovarian; above 68.1 µM in the experiment with NCI-H23 lung; above 100 µM in the experiment with RPMI-8226 leukemia; above 100 µM in the experiment on MOLT-4 leukemia; above 92.4 µM in the experiment with NCI-H460 lung; above 93.8 µM in the experiment on U251 CNS. Also, the TGI is above 100 µM in the experiment on HOP-62 NSCLC, 65.3 µM with RXF 393 renal, above 100 µM in the experiment with SNB-75 CNS and above 68.1 µM in the experiment on HOP-92 NSCLC.

For the molecule `CCN(CC)CCCC(C)Nc1c2ccc(C)cc2nc2ccc(OC)cc12` (centres undefined), the GI50 was 2.42 µM in the experiment with SK-OV-3 ovarian; 1.84 µM in the experiment with NCI-H23 lung; 1.75 µM in the experiment with RPMI-8226 leukemia; 777 nM with MOLT-4 leukemia; 1.2 µM in the experiment on NCI-H460 lung; 1.35 µM with U251 CNS. In addition, the GI50 was 1.37 µM with HOP-62 NSCLC, 1.44 µM in the experiment on RXF 393 renal, 1370 nM in the experiment with SNB-75 CNS and 885 nM in the experiment on HOP-92 NSCLC. Further, the TGI was determined as 15.7 µM in the experiment on SK-OV-3 ovarian; 5.86 µM in the experiment on NCI-H23 lung; 5.05 µM in the experiment with RPMI-8226 leukemia; 13.6 µM with MOLT-4 leukemia; 3.74 µM in the experiment with NCI-H460 lung; 4.45 µM in the experiment with U251 CNS. The TGI with HOP-62 NSCLC came out at 3.49 µM; in the experiment with RXF 393 renal, 2.88 µM; with SNB-75 CNS, 3.24 µM; in the experiment with HOP-92 NSCLC it was 5.1 µM.

As for `COC(=O)c1nc(N)[nH]c(=O)c1CCCCCc1c(C(=O)OC)nc(N)[nH]c1=O`, the TGI in the experiment with SK-OV-3 ovarian, with NCI-H23 lung, with RPMI-8226 leukemia, in the experiment on NCI-H460 lung, in the experiment with U251 CNS and with HOP-62 NSCLC was above 50 µM throughout. The TGI in the experiment on RXF 393 renal, in the experiment with SNB-75 CNS and in the experiment on HOP-92 NSCLC was above 50 µM throughout.

For the origin of these results see PubChem BioAssay (NCI).
